{"source": "patent US10668040B2", "about": "“Treatment of urea cycle disorders in neonates and infants” (Horizon Therapeutics, LLC, priority 2017, dated 2020)", "tested_on": "UCD patients", "experiment": "Example 3: TEAEs, serious and non-serious adverse events", "assay_type": "in vivo", "from_the_text": "Sixteen newborn infants aged 0 to 27 days, and 10 infants and toddlers aged 28 days to 23 months received RAVICTI Oral Liquid administered just prior to breastfeeding or intake of formula or food. The recommended dosing regimen was 3-6 times per day depending on feeding schedule.\nNumber of Subjects with Treatment-Emergent Adverse Events (TEAEs), Serious TEAEs, Deaths, and Discontinuations Due to TEAEs\nAn adverse event (AE) is any untoward medical occurrence, whether or not the event is considered related to the study drug. A serious AE is any AE that: results in death; is life threatening; requires hospitalization or prolongation of existing hospitalization; results in disability/incapacity; is a congenital anomaly/birth defect; is an important medical event. TEAEs are defined as AEs with an onset date on or after the first dose of study medication until study discontinuation. The Investigator assessed the causal relationship of each TEAE to the study drug as not related, possibly related, or probably related. From the first dose of study treatment through 30 days after the final dose (mean [SD] duration of treatment was 9.13 [6.838] months).", "data": [{"smiles": "O=C(CCCc1ccccc1)OCC(COC(=O)CCCc1ccccc1)OC(=O)CCCc1ccccc1", "note": "[RAVICTI, benzenebutanoic acid, 1′,1″-(1,2,3-propanetriyl) ester]", "values": [{"measurement": "Number of Deaths (All Causes)", "setting": "Age 0 to <2 Months", "result": 0}, {"measurement": "Serious AE Ammonia Increased: Deaths causally related to treatment/all", "setting": "Age 0 to <2 Months", "result": "0/0"}, {"measurement": "Serious AE Ammonia Increased: Occurrences causally related to treatment/all", "setting": "Age 0 to <2 Months", "result": "0/0"}, {"measurement": "Serious AE Apnoeic Attack: Deaths causally related to treatment/all", "setting": "Age 0 to <2 Months", "result": "0/0"}, {"measurement": "Serious AE Apnoeic Attack: Occurrences causally related to treatment/all", "setting": "Age 0 to <2 Months", "result": "0/0"}, {"measurement": "Serious AE Asthma: Deaths causally related to treatment/all", "setting": "Age 0 to <2 Months", "result": "0/0"}, {"measurement": "Serious AE Asthma: Occurrences causally related to treatment/all", "setting": "Age 0 to <2 Months", "result": "0/0"}, {"measurement": "Serious AE Atelectasis: Deaths causally related to treatment/all", "setting": "Age 0 to <2 Months", "result": "0/0"}, {"measurement": "Serious AE Atelectasis: Occurrences causally related to treatment/all", "setting": "Age 0 to <2 Months", "result": "0/1"}, {"measurement": "Serious AE Bacteraemia: Deaths causally related to treatment/all", "setting": "Age 0 to <2 Months", "result": "0/0"}, {"measurement": "Serious AE Bacteraemia: Occurrences causally related to treatment/all", "setting": "Age 0 to <2 Months", "result": "0/1"}, {"measurement": "Serious AE Cellulitis: Deaths causally related to treatment/all", "setting": "Age 0 to <2 Months", "result": "0/0"}, {"measurement": "Serious AE Cellulitis: Occurrences causally related to treatment/all", "setting": "Age 0 to <2 Months", "result": "0/1"}, {"measurement": "Serious AE Croup infectious: Deaths causally related to treatment/all", "setting": "Age 0 to <2 Months", "result": "0/0"}, {"measurement": "Serious AE Croup infectious: Occurrences causally related to treatment/all", "setting": "Age 0 to <2 Months", "result": "0/1"}, {"measurement": "Serious AE Cyanosis: Deaths causally related to treatment/all", "setting": "Age 0 to <2 Months", "result": "0/0"}, {"measurement": "Serious AE Cyanosis: Occurrences causally related to treatment/all", "setting": "Age 0 to <2 Months", "result": "0/0"}, {"measurement": "Serious AE Dehydration: Deaths causally related to treatment/all", "setting": "Age 0 to <2 Months", "result": "0/0"}, {"measurement": "Serious AE Dehydration: Occurrences causally related to treatment/all", "setting": "Age 0 to <2 Months", "result": "0/1"}, {"measurement": "Serious AE Device related infection: Deaths causally related to treatment/all", "setting": "Age 0 to <2 Months", "result": "0/0"}, {"measurement": "Serious AE Device related infection: Occurrences causally related to treatment/all", "setting": "Age 0 to <2 Months", "result": "0/1"}, {"measurement": "Serious AE Feeding Disorder: Deaths causally related to treatment/all", "setting": "Age 0 to <2 Months", "result": "0/0"}, {"measurement": "Serious AE Feeding Disorder: Occurrences causally related to treatment/all", "setting": "Age 0 to <2 Months", "result": "0/1"}, {"measurement": "Serious AE Gastroenteritis: Deaths causally related to treatment/all", "setting": "Age 0 to <2 Months", "result": "0/0"}, {"measurement": "Serious AE Gastroenteritis: Occurrences causally related to treatment/all", "setting": "Age 0 to <2 Months", "result": "0/0"}, {"measurement": "Serious AE Hyperammonaemia: Deaths causally related to treatment/all", "setting": "Age 0 to <2 Months", "result": "0/0"}, {"measurement": "Serious AE Hyperammonaemia: Occurrences causally related to treatment/all", "setting": "Age 0 to <2 Months", "result": "0/7"}, {"measurement": "Serious AE Influenza: Deaths causally related to treatment/all", "setting": "Age 0 to <2 Months", "result": "0/0"}, {"measurement": "Serious AE Influenza: Occurrences causally related to treatment/all", "setting": "Age 0 to <2 Months", "result": "0/0"}, {"measurement": "Serious AE Lethargy: Deaths causally related to treatment/all", "setting": "Age 0 to <2 Months", "result": "0/0"}, {"measurement": "Serious AE Lethargy: Occurrences causally related to treatment/all", "setting": "Age 0 to <2 Months", "result": "0/1"}, {"measurement": "Serious AE Medical device site infection: Deaths causally related to treatment/all", "setting": "Age 0 to <2 Months", "result": "0/0"}, {"measurement": "Serious AE Medical device site infection: Occurrences causally related to treatment/all", "setting": "Age 0 to <2 Months", "result": "0/1"}, {"measurement": "Serious AE Meningitis bacterial: Deaths causally related to treatment/all", "setting": "Age 0 to <2 Months", "result": "0/0"}, {"measurement": "Serious AE Meningitis bacterial: Occurrences causally related to treatment/all", "setting": "Age 0 to <2 Months", "result": "0/1"}, {"measurement": "Serious AE Neutropenia: Deaths causally related to treatment/all", "setting": "Age 0 to <2 Months", "result": "0/0"}, {"measurement": "Serious AE Neutropenia: Occurrences causally related to treatment/all", "setting": "Age 0 to <2 Months", "result": "0/1"}, {"measurement": "Serious AE Peritonitis: Deaths causally related to treatment/all", "setting": "Age 0 to <2 Months", "result": "0/0"}, {"measurement": "Serious AE Peritonitis: Occurrences causally related to treatment/all", "setting": "Age 0 to <2 Months", "result": "0/0"}, {"measurement": "Serious AE Pneumatosis intestinalis: Deaths causally related to treatment/all", "setting": "Age 0 to <2 Months", "result": "0/0"}, {"measurement": "Serious AE Pneumatosis intestinalis: Occurrences causally related to treatment/all", "setting": "Age 0 to <2 Months", "result": "0/0"}, {"measurement": "Serious AE Pyrexia: Deaths causally related to treatment/all", "setting": "Age 0 to <2 Months", "result": "0/0"}, {"measurement": "Serious AE Pyrexia: Occurrences causally related to treatment/all", "setting": "Age 0 to <2 Months", "result": "0/0"}, {"measurement": "Serious AE Respiratory syncytial virus infection: Deaths causally related to treatment/all", "setting": "Age 0 to <2 Months", "result": "0/0"}, {"measurement": "Serious AE Respiratory syncytial virus infection: Occurrences causally related to treatment/all", "setting": "Age 0 to <2 Months", "result": "0/1"}, {"measurement": "Serious AE Rhinovirus infection: Deaths causally related to treatment/all", "setting": "Age 0 to <2 Months", "result": "0/0"}, {"measurement": "Serious AE Rhinovirus infection: Occurrences causally related to treatment/all", "setting": "Age 0 to <2 Months", "result": "0/0"}, {"measurement": "Serious AE Status asthmaticus: Deaths causally related to treatment/all", "setting": "Age 0 to <2 Months", "result": "0/0"}, {"measurement": "Serious AE Status asthmaticus: Occurrences causally related to treatment/all", "setting": "Age 0 to <2 Months", "result": "0/0"}, {"measurement": "Serious AE Tracheitis: Deaths causally related to treatment/all", "setting": "Age 0 to <2 Months", "result": "0/0"}, {"measurement": "Serious AE Tracheitis: Occurrences causally related to treatment/all", "setting": "Age 0 to <2 Months", "result": "0/1"}, {"measurement": "Serious AE Upper respiratory tract infection: Deaths causally related to treatment/all", "setting": "Age 0 to <2 Months", "result": "0/0"}, {"measurement": "Serious AE Upper respiratory tract infection: Occurrences causally related to treatment/all", "setting": "Age 0 to <2 Months", "result": "0/1"}, {"measurement": "Serious AE Urinary tract infection: Deaths causally related to treatment/all", "setting": "Age 0 to <2 Months", "result": "0/0"}, {"measurement": "Serious AE Urinary tract infection: Occurrences causally related to treatment/all", "setting": "Age 0 to <2 Months", "result": "0/1"}, {"measurement": "Serious AE Viral infection: Deaths causally related to treatment/all", "setting": "Age 0 to <2 Months", "result": "0/0"}, {"measurement": "Serious AE Viral infection: Occurrences causally related to treatment/all", "setting": "Age 0 to <2 Months", "result": "0/1"}, {"measurement": "Serious AE Viral upper respiratory tract infection: Deaths causally related to treatment/all", "setting": "Age 0 to <2 Months", "result": "0/0"}, {"measurement": "Serious AE Viral upper respiratory tract infection: Occurrences causally related to treatment/all", "setting": "Age 0 to <2 Months", "result": "0/0"}, {"measurement": "Serious AE Vomiting: Deaths causally related to treatment/all", "setting": "Age 0 to <2 Months", "result": "0/0"}, {"measurement": "Serious AE Vomiting: Occurrences causally related to treatment/all", "setting": "Age 0 to <2 Months", "result": "0/2"}, {"measurement": "Number of Deaths (All Causes)", "setting": "Age 2 Months to <2 Years", "result": 1}, {"measurement": "Serious AE Ammonia Increased: Deaths causally related to treatment/all", "setting": "Age 2 Months to <2 Years", "result": "0/0"}, {"measurement": "Serious AE Ammonia Increased: Occurrences causally related to treatment/all", "setting": "Age 2 Months to <2 Years", "result": "0/1"}, {"measurement": "Serious AE Apnoeic Attack: Deaths causally related to treatment/all", "setting": "Age 2 Months to <2 Years", "result": "0/0"}, {"measurement": "Serious AE Apnoeic Attack: Occurrences causally related to treatment/all", "setting": "Age 2 Months to <2 Years", "result": "0/2"}, {"measurement": "Serious AE Asthma: Deaths causally related to treatment/all", "setting": "Age 2 Months to <2 Years", "result": "0/0"}, {"measurement": "Serious AE Asthma: Occurrences causally related to treatment/all", "setting": "Age 2 Months to <2 Years", "result": "0/1"}, {"measurement": "Serious AE Atelectasis: Deaths causally related to treatment/all", "setting": "Age 2 Months to <2 Years", "result": "0/0"}, {"measurement": "Serious AE Atelectasis: Occurrences causally related to treatment/all", "setting": "Age 2 Months to <2 Years", "result": "0/0"}, {"measurement": "Serious AE Bacteraemia: Deaths causally related to treatment/all", "setting": "Age 2 Months to <2 Years", "result": "0/0"}, {"measurement": "Serious AE Bacteraemia: Occurrences causally related to treatment/all", "setting": "Age 2 Months to <2 Years", "result": "0/0"}, {"measurement": "Serious AE Cellulitis: Deaths causally related to treatment/all", "setting": "Age 2 Months to <2 Years", "result": "0/0"}, {"measurement": "Serious AE Cellulitis: Occurrences causally related to treatment/all", "setting": "Age 2 Months to <2 Years", "result": "0/0"}, {"measurement": "Serious AE Croup infectious: Deaths causally related to treatment/all", "setting": "Age 2 Months to <2 Years", "result": "0/0"}, {"measurement": "Serious AE Croup infectious: Occurrences causally related to treatment/all", "setting": "Age 2 Months to <2 Years", "result": "0/1"}, {"measurement": "Serious AE Cyanosis: Deaths causally related to treatment/all", "setting": "Age 2 Months to <2 Years", "result": "0/0"}, {"measurement": "Serious AE Cyanosis: Occurrences causally related to treatment/all", "setting": "Age 2 Months to <2 Years", "result": "0/2"}, {"measurement": "Serious AE Dehydration: Deaths causally related to treatment/all", "setting": "Age 2 Months to <2 Years", "result": "0/0"}, {"measurement": "Serious AE Dehydration: Occurrences causally related to treatment/all", "setting": "Age 2 Months to <2 Years", "result": "0/0"}, {"measurement": "Serious AE Device related infection: Deaths causally related to treatment/all", "setting": "Age 2 Months to <2 Years", "result": "0/0"}, {"measurement": "Serious AE Device related infection: Occurrences causally related to treatment/all", "setting": "Age 2 Months to <2 Years", "result": "0/0"}, {"measurement": "Serious AE Feeding Disorder: Deaths causally related to treatment/all", "setting": "Age 2 Months to <2 Years", "result": "0/0"}]}]}
